Source: patent US11464864B2, “Drug-bound compound and use thereof” (priority 2018, dated 2022)
Read-outs that look alike come from different tables or passages of the source.

Assays:
HT-29 cells = assay: Measurement of cytotoxicity, MTT assay; assay type: cell-based; conditions: Homo sapiens, 48 hours incubation, read-out: IC50 (cell viability, MTT)
Protocol: (§1) High glucose Dulbecco's modified Eagle's medium (DMEM), Roswell Park Memorial Institute (RPMI) 1640, Dulbecco's phosphate buffered saline, pH 7.4 (DPBS), fetal bovine serum (FBS), and trypsin/EDTA were obtained from Gibco™ and Thermo Fischer Scientific. Mitotracker and Lysotracker were obtained from Invitrogen Inc. (USA). 3-(4,5-Dimethyl-2-thiazolyl)-2,5-diphenyl-2H-tetrazolium bromide (MTT) was purchased from Sigma-Aldrich Korea Ltd. All solutions were prepared using Milli-Q purified water […]. HeLa cells were cultured in 10% (v/v) FBS containing DMEM and penicillin at 37° C. under a wet 5% CO2 environment. For SW480 cells and HT-29 cells, RMPI 1640 medium was used.
(§2) SW480 cells and HT-29 cells (4.5×10^3 cells per well) were seeded in a 96-well plate. After 24 hours, the medium was replaced with serum-free RMPT 1640. […] The treated cells were incubated for 48 hours, washed with cold PBS, and then exposed to MTT in the medium for 4 hours. The medium was replaced with DMSO, and the dissolved formazan dye was quantified by measuring the absorbance at 500 nm. Non-treated cells were measured in the same manner as a control.

SW480 cells = assay: Measurement of cytotoxicity, MTT assay; assay type: cell-based; conditions: Homo sapiens, 48 hours incubation, read-out: IC50 (cell viability, MTT)
Protocol: as §1, §2

HeLa cells [1] = assay: Identification of cell uptake by confocal microscopy; assay type: cell-based; conditions: 10 µM compound, serum-free DMEM, 37° C., 30 minutes
Protocol: as §1
(§3) HeLa cells (1×10^5 cells per well) were seeded in a 35 mm cover glass bottom dish (SPL Life Sciences Co., Ltd., Korea) and incubated for 24 hours. […] After incubation at 37° C. for 30 minutes, the cells were washed three times with cold PBS to remove non-internalized samples. Live HeLa cells were examined with a confocal laser scanning microscope (Olympus Fluoview FV1000) equipped with an oil immersion lens (NA 1.30, 40×). […] Each analysis was repeated three times.

HeLa cells [2] = tested on: HeLa cells
Protocol: as §3

CC[C@@]1(O)C(=O)OCc2c1cc1n(c2=O)Cc2cc3ccccc3nc2-1 [CPT, Camptothecin]
IC50 (HT-29 cells): 990 nM | IC50 (SW480 cells): 1530 nM

1-O-[20-O—(N-succinyl-6-aminohexanoyl)camptothecin]-2,3,4,5-tetra-O—(N-{bis-[3-N′,N″-bis-(tert-butoxycarbonyl)-guanidino)-propyl]}-6-aminohexanoyl)-6-O-[6-(fluoresceinyl-5-thioureido)-hexanoyl]-D-sorbitol⋅8HCl [compound (10)]
Cell uptake (intracellular FITC fluorescence in live cells) (HeLa cells [1]): strong green fluorescence appears mainly in the cytoplasm | Intracellular localization (HeLa cells [2]; HeLa cells, 10 μM): intracellular localization for mitochondria | Intracellular localization (HeLa cells [2]; HeLa cells, 20 μM, incubated 30 minutes): fluorescence exists even inside the nucleus | Co-localization with Lysotracker (lysosomal marker) (HeLa cells [2]; HeLa cells, Lysotracker 200 nM): co-localization was not observed | Co-localization with Mitotracker (mitochondrial marker) (HeLa cells [2]; live HeLa cells, 10 uM for 30 minutes, then Mitotracker 100 nM for 30 minutes): Co-localization was markedly observed

20-O-[6-(fluoresceinyl-5-thioureido)-hexanoyl)camptothecin [compound (4)]
Cell uptake (intracellular FITC fluorescence in live cells) (HeLa cells [1]): intracellular fluorescence was not observed
